Experimental data taken from patent US4683230A, “BMY-28121, a new antitumor antibiotic” (Bristol-Myers Company, priority 1985, dated 1987).
≈ marks a conversion by molar mass, not a printed value.

What was measured:
B16 melanoma = assay: Antitumor activity in mice, melanotic melanoma B16; conditions: ip, once daily for 9 days, circled = significant antitumor effect
[1] = test system: Clostridium perfringens A22787; assay: microbe, parasite or virus in culture; format: cell-based
P388 leukemia = conditions: mouse, in vivo
anaerobic bacteria = format: cell-based
[2] = Acute toxicity in mice, single intraperitoneal administration; set-up: species or system mice (male ddY strain); conditions: mouse, in vivo, ip, male ddY mice

CO[C@@]12[C@H](COC(N)=O)C3=C(C(=O)C(C)=C(N)C3=O)N1C[C@@H]1N[C@@H]12 [Mitomycin C]
T/C % of MST (B16 melanoma; 0.13 mg/kg/day): 124%
T/C % of MST (B16 melanoma; 0.25 mg/kg/day): 136%

CC1(C)S[C@@H]2[C@H](NC(=O)[C@H](N)c3ccccc3)C(=O)N2[C@H]1C(=O)O [Ampicillin]
MIC [1]: 0.1 µg/mL (≈ 0.286 µM)

COc1cccc2c1N[C@H](O)[C@@H]1CC(/C=C/C(=O)N(C)C)=CN1C2=O [BMY-28121A]
antitumor activity against experimental tumors in mice, eg. P388 leukemia (P388 leukemia): marked antitumor activity

COc1cccc2c1N[C@H](OC)[C@@H]1CC(/C=C/C(=O)N(C)C)=CN1C2=O [BMY-28121B, 1,10,11,11a-tetrahydro-9,11-dimethoxy-5H-pyrrolo[2,1-c][1,4]benzodiazepine-5-one-2-N,N-dimethylacrylamide]
inhibition of anaerobic bacteria (anaerobic bacteria): inhibited all
LD50 [2]: 0.81 mg/kg
antitumor activity against experimental tumors in mice, eg. P388 leukemia (P388 leukemia): marked antitumor activity
solubility in ethyl acetate and ethyl ether: slightly soluble
solubility in methanol, ethanol, chloroform, pyridine, and dimethylformamide: readily soluble
solubility in n-hexane: practically insoluble
solubility in water: practically insoluble
